# Assay results from patent US9096500B2, “Acyl sulfonamide compounds” (Pfizer Limited, priority 2010, dated 2015).
# Where a name gives a salt, the structure may show the parent alone.
# Molecular target: T1, Nav1.7 (or SCN9A) channel (Homo sapiens, UniProt Q15858)
# T1 construct: expressed in transfected cells
# Assay: Nav1.7 (hSCN9A) electrophysiology assay, PatchXpress platform
# Format: cell-based
# Settings: estimated IC50 from single point electrophysiology data, HEK cells stably expressing hSCN9A, held at V1/2 of inactivation, read-out: Nav1.7 EIC50
# Protocol: The ability of the compounds of formula (I) to block the Nav1.7 (or SCN9A) channel were measured using the assay described below.
# Human Embryonic Kidney (HEK) cells were transfected with an hSCN9A construct using lipofectamine reagent (Invitrogen), using standard techniques. Cells stably expressing the hSCN9A constructs were identified by their resistance to G-418 (400 μg/ml). Clones were screened for expression using the whole-cell voltage-clamp technique.
# HEK cells stably transfected with hSCN9A were maintained in DMEM medium supplemented with 10% heat-inactivated fetal bovine serum and 400 μg/ml G-418 in an incubator at 37° C. with a humidified atmosphere of 10% CO2. For HTS, cells were harvested from flasks by trypsinization and replated in an appropriate multi-well plate (typically 96 or 384 wells/plate) such that confluence would be achieved within 24 hours of plating. For electrophysiological studies, cells were removed from the culture flask by brief trypsinization and re-plated at low density onto glass cover slips. Cells were typically used for electrophysiological experiments within 24 to 72 hours after plating.
# Cover slips containing HEK cells expressing hSCN9A were placed in a bath on the stage of an inverted microscope and perfused (approximately 1 ml/minutes) with extracellular solution of the following composition: 138 mM NaCl, 2 mM CaCl2, 5.4 mM KCl, 1 mM MgCl2, 10 mM glucose, and 10 mM HEPES, pH 7.4, with NaOH. […] The osmolarity of the extracellular and intracellular solutions was 300 mOsm/kg and 295 mOsm/kg, respectively. All recordings were made at room temperature (22-24° C.) using AXOPATCH 200B amplifiers and PCLAMP software (Axon Instruments, Burlingame, Calif.).
# hSCN9A currents in HEK cells were measured using the whole-cell configuration of the patch-clamp technique (Hamill et al., 1981). Uncompensated series resistance was typically 2 to 5 mega ohms and >85% series resistance compensation was routinely achieved. […] Current records were acquired at 20 to 50 KHz and filtered at 5 to 10 KHz.
# HEK cells stably transfected with hSCN9A were viewed under Hoffman contrast optics and placed in front of an array of flow pipes emitting either control or compound-containing extracellular solutions. All compounds were dissolved in dimethyl sulfoxide to make 10 mM stock solutions, which were then diluted into extracellular solution to attain the final concentrations desired. […] The voltage-dependence of inactivation was determined by applying a series of depolarizing prepulses (8 sec long in 10 mV increments) from a negative holding potential. The voltage was then immediately stepped to 0 mV to assess the magnitude of the sodium current. Currents elicited at 0 mV were plotted as a function of prepulse potential to allow estimation of the voltage at which 50% of the channels were inactivated (midpoint of inactivation or V1/2). Compounds were tested for their ability to inhibit hSCN9A sodium channels by activating the channel with a 20 msec voltage step to 0 mV following an 8 second conditioning prepulse to the empirically determined V1/2. Compound effect (% inhibition) was determined by difference in current amplitude before and after application of test compounds. […] Inhibition values <20% and >80% were excluded from the calculation.
# Electrophysiological assays were conducted with PatchXpress 7000 hardware and associated software (Molecular Devices Corp). All assay buffers and solutions were identical to those used in conventional whole-cell voltage clamp experiments described above. hSCN9A cells were grown as above to 50%-80% confluency and harvested by trypsinization. Trypsinized cells were washed and resuspended in extracellular buffer at a concentration of 1×10^6 cells/ml. The onboard liquid handling facility of the PatchXpress was used for dispensing cells and application of test compounds.
# T1 sequence (Q15858 whole entry): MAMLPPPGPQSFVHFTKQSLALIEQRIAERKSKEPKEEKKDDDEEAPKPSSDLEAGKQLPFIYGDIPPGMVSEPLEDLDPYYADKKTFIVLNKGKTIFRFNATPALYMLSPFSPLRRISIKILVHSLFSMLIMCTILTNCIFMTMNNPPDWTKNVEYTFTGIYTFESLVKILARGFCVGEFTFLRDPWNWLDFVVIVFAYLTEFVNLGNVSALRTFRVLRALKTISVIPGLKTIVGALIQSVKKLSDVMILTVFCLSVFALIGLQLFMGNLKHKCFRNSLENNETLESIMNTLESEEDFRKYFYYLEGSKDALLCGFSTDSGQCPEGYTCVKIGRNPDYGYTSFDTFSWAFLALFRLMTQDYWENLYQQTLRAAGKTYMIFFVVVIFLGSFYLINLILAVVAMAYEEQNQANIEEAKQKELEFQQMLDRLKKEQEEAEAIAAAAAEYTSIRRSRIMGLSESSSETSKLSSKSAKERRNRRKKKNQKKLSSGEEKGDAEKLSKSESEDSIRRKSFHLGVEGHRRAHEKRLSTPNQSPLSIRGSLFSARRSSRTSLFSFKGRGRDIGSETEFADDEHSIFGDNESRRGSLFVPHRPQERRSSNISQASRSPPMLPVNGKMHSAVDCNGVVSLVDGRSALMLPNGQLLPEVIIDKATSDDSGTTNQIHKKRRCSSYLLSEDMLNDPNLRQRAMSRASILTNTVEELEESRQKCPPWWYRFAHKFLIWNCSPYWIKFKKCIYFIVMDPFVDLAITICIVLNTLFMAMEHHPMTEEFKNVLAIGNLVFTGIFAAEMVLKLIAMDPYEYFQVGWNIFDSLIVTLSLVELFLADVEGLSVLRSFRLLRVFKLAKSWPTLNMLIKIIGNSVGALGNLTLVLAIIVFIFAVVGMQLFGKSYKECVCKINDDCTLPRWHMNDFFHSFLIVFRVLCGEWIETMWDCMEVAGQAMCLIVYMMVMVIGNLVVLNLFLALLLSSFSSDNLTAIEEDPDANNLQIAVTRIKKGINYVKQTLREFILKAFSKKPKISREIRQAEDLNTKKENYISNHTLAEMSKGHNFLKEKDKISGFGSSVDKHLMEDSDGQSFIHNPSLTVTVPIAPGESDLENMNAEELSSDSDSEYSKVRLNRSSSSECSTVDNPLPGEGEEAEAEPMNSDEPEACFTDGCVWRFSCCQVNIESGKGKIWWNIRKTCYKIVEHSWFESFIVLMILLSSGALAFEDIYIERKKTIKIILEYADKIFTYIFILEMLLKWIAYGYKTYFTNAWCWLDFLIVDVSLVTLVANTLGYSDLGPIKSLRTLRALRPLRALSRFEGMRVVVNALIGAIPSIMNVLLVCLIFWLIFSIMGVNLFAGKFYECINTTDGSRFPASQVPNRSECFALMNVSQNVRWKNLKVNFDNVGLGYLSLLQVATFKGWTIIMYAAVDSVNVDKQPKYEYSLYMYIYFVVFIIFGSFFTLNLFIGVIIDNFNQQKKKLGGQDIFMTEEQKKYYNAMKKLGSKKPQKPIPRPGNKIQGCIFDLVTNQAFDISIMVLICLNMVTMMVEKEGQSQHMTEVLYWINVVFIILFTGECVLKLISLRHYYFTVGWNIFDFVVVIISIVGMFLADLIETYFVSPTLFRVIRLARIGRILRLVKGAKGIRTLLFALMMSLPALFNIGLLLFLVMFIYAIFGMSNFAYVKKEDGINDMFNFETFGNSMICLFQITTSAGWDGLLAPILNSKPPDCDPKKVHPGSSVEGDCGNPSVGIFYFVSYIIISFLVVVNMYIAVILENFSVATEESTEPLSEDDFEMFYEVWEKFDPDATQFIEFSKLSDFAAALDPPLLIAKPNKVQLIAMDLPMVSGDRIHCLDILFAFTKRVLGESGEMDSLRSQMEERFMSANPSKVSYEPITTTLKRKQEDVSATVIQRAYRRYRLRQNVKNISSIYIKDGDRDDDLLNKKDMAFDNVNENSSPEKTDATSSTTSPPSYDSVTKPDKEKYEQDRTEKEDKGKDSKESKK
row,IC50 [µM],Structure (SMILES)
1,> 1,"COc1cc(COc2ccc(C(=O)NS(C)(=O)=O)cc2)ccc1F [Example 185, 4-[(4-fluoro-3-methoxybenzyl)oxy]-N-(methylsulfonyl)benzamide]"
2,> 3,"CS(=O)(=O)NC(=O)c1ccc(OCc2cccc(F)c2F)cc1 [Example 170, 4-[(2,3-difluorobenzyl)oxy]-N-(methylsulfonyl)benzamide]"
3,4.2,"CS(=O)(=O)NC(=O)c1ccc(OCc2cc(F)cc(F)c2)cc1 [Example 187, 4-[(3,5-difluorobenzyl)oxy]-N-(methylsulfonyl)benzamide]"
4,> 1,"COc1ccc(C)cc1COc1ccc(C(=O)NS(C)(=O)=O)cc1 [Example 210, 4-[(2-methoxy-5-methylbenzyl)oxy]-N-(methylsulfonyl)benzamide]"
5,8.4,"CS(=O)(=O)NC(=O)c1ccc(COc2ccc(C#N)cc2)cc1 [Example 17, 4-((4-Cyanophenoxy)methyl)-N-(methylsulfonyl)benzamide]"
6,> 1,"CS(=O)(=O)NC(=O)c1ccc(OCc2cccc(C(F)(F)F)c2)cc1 [Example 179, N-(methylsulfonyl)-4-{[3-(trifluoromethyl)benzyl]oxy}benzamide]"
7,0.81,"CS(=O)(=O)NC(=O)c1ccc(OCc2ccc(Cl)c(F)c2)cc1 [Example 178, 4-[(4-chloro-3-fluorobenzyl)oxy]-N-(methylsulfonyl)benzamide]"
8,> 1,"COc1ccc(COc2cc(F)c(C(=O)NS(C)(=O)=O)cc2F)cc1 [Example 198, 2,5-difluoro-4-[(4-methoxybenzyl)oxy]-N-(methylsulfonyl)benzamide]"
9,> 3,"COc1ccc(COc2ccc(C(=O)NS(C)(=O)=O)cc2)cc1 [Example 89, 4-[(4-methoxybenzyl)oxy]-N-(methylsulfonyl)benzamide]"
10,0.72,"CCc1ccc(OCc2ccc(C(=O)NS(C)(=O)=O)cc2)cc1 [Example 25, 4-((4-Ethylphenoxy)methyl)-N-(methylsulfonyl)benzamide Diethylamine salt]"
11,2.1,"CS(=O)(=O)NC(=O)c1ccc(OCc2ccc(F)c(F)c2)cc1 [Example 177, 4-[(3,4-difluorobenzyl)oxy]-N-(methylsulfonyl)benzamide]"

# More lines, now with the values behind:
row,Structure (SMILES),IC50 [µM]
1,"CN1CCN(c2cccc(OCc3cc(F)c(C(=O)NS(C)(=O)=O)cc3F)c2)CC1 [Example 113, 2,5-difluoro-4-{[3-(4-methylpiperazin-1-yl)phenoxy]methyl}-N-(methylsulfonyl)benzamide]",11
2,"CS(=O)(=O)NC(=O)c1cc(Cl)c(COc2ccc(Cl)c(OC(F)F)c2)cc1F [Example 62, 5-Chloro-4-{[4-chloro-3-(difluoromethoxy)phenoxy]methyl}-2-fluoro-N-(methylsulfonyl)benzamide]",< 3
3,"COc1ccc(OCc2cc(F)c(C(=O)NS(C)(=O)=O)cc2F)c(F)c1F [Example 155, 4-[(2,3-difluoro-4-methoxyphenoxy)methyl]-2,5-difluoro-N-(methylsulfonyl)benzamide]",3.2
4,"Cn1nc(C(F)(F)F)cc1-c1ccc(OCc2ccc(C(=O)NS(C)(=O)=O)cc2)cc1 [Example 4, N-(Methylsulfonyl)-4-({4-[1-methyl-3-(trifluoromethyl)-1H-pyrazol-5-yl]phenoxy}methyl)benzamide diethylamine salt]",1.2
5,"CS(=O)(=O)NC(=O)c1cc(F)c(OCc2cccc(F)c2)cc1F [Example 195, 2,5-difluoro-4-[(3-fluorobenzyl)oxy]-N-(methylsulfonyl)benzamide]",> 3
6,"CS(=O)(=O)NC(=O)c1cc(F)c(OCc2cccc(OC(F)F)c2)cc1F [Example 224, 4-{[3-(difluoromethoxy)benzyl]oxy}-2,5-difluoro-N-(methylsulfonyl)benzamide]",> 0.3
7,"CCC(C)S(=O)(=O)NC(=O)c1cc(F)c(COc2ccc(Cl)c(Cl)c2)cc1F (stereo not shown) [Example 23, N-(sec-Butylsulfonyl)-4-((3,4-dichlorophenoxy)methyl)-2,5-difluorobenzamide]",0.38
8,"Cc1cc(OCc2cc(F)c(C(=O)NS(C)(=O)=O)cc2F)cc(C)c1C#N [Example 162, 4-[(4-cyano-3,5-dimethylphenoxy)methyl]-2,5-difluoro-N-(methylsulfonyl)benzamide]",0.73
9,"COc1cc(COc2ccc(Cl)c(Cl)c2)ccc1C(=O)NS(C)(=O)=O [Example 30, 4-[(3,4-Dichlorophenoxy)methyl]-2-methoxy-N-(methylsulfonyl)benzamide]",1.9
10,"COc1ccc(OCc2cc(F)c(C(=O)NS(C)(=O)=O)cc2F)cc1F [Example 97, 2,5-difluoro-4-[(3-fluoro-4-methoxyphenoxy)methyl]-N-(methylsulfonyl)benzamide]",1.5
11,"CS(=O)(=O)NC(=O)c1cc(F)c(COc2ccccc2C#N)cc1F [Example 137, 4-[(2-cyanophenoxy)methyl]-2,5-difluoro-N-(methylsulfonyl)benzamide]",> 3
12,"CS(=O)(=O)NC(=O)c1cc(F)c(OCc2ccccc2F)cc1F [Example 199, 2,5-difluoro-4-[(2-fluorobenzyl)oxy]-N-(methylsulfonyl)benzamide]",2.4
13,"COc1cc(C)cc(OCc2cc(F)c(C(=O)NS(C)(=O)=O)cc2F)c1 [Example 150, 2,5-difluoro-4-[(3-methoxy-5-methylphenoxy)methyl]-N-(methylsulfonyl)benzamide]",0.5
14,"CS(=O)(=O)NC(=O)c1cc(F)c(COc2cc(C(F)(F)F)ccc2F)cc1F [Example 123, 2,5-difluoro-4-{[2-fluoro-5-(trifluoromethyl)phenoxy]methyl}-N-(methylsulfonyl)benzamide]",0.85
15,"COc1ccc(Cl)cc1COc1cc(F)c(C(=O)NS(C)(=O)=O)cc1F [Example 230, 4-[(5-chloro-2-methoxybenzyl)oxy]-2,5-difluoro-N-(methylsulfonyl)benzamide]",2.2
16,"Cc1cccc(COc2cc(F)c(C(=O)NS(C)(=O)=O)cc2F)c1 [Example 217, 2,5-difluoro-4-[(3-methylbenzyl)oxy]-N-(methylsulfonyl)benzamide]",> 1
17,"COc1cc(OCc2cc(F)c(C(=O)NS(C)(=O)=O)cc2F)ccc1-n1cccn1 [Example 139, 2,5-difluoro-4-{[3-methoxy-4-(1H-pyrazol-1-yl)phenoxy]methyl}-N-(methylsulfonyl)benzamide]",> 3
18,"Cc1ccc(COc2cc(F)c(C(=O)NS(C)(=O)=O)cc2F)cc1C [Example 203, 4-[(3,4-dimethylbenzyl)oxy]-2,5-difluoro-N-(methylsulfonyl)benzamide]",1.7
19,"CS(=O)(=O)NC(=O)c1ccc(OCc2ccc(Cl)cc2)c(C#N)c1 [Example 77, 4-[(4-chlorobenzyl)oxy]-3-cyano-N-(methylsulfonyl)benzamide]",> 3
20,"CS(=O)(=O)NC(=O)c1cc(F)c(OCc2cccc(Cl)c2)cc1F [Example 207, 4-[(3-chlorobenzyl)oxy]-2,5-difluoro-N-(methylsulfonyl)benzamide]",> 0.3
21,"CC(C)c1ccc(OCc2cc(F)c(C(=O)NS(C)(=O)=O)cc2F)cc1 [Example 147, 2,5-difluoro-4-[(4-isopropylphenoxy)methyl]-N-(methylsulfonyl)benzamide]",0.17
22,"COc1cc(F)cc(OCc2cc(F)c(C(=O)NS(C)(=O)=O)cc2F)c1 [Example 128, 2,5-difluoro-4-[(3-fluoro-5-methoxyphenoxy)methyl]-N-(methylsulfonyl)benzamide]",2.9
23,"CS(=O)(=O)NC(=O)c1cc(F)c(COc2ccc(OC(F)F)c(Cl)c2)cc1F [Example 52, 4-{[3-Chloro-4-(difluoromethoxy)phenoxy]methyl}-2,5-difluoro-N-(methylsulfonyl)benzamide]",0.13
